Reference: the SangsterLogP compilation

Legend:
[1] = method code SF-AS, from DOI: 10.1111/j.2042-7158.1989.tb06480.x, PMID: 2570831; conditions: pH 7.4
[2] = method code SF, from DOI: 10.1021/jm9018146, PMID: 20232803; conditions: pH 7.4
[3] = not given; remark: listed apart in the source
[4] = method code SF-AS, from PMID: 7306420; conditions: pH 7.5
[5] = not given; remark: listed apart in the source
[6] = not given; remark: listed apart in the source
[7] = method code SF, from DOI: 10.1016/0223-5234(96)89550-x
[8] = method code SF, from DOI: 10.1097/00004424-199009001-00048; conditions: pH 7.4
[9] = not given; remark: listed apart in the source
[10] = not given; remark: listed apart in the source
[11] = method code SF-RC, from DOI: 10.1267/nukl06010041, PMID: 16493513; conditions: pH 7.4
[12] = not given; remark: listed apart in the source
[13] = not given; remark: listed apart in the source
[14] = method code SF-HPLC, from DOI: 10.1021/jm1007903, PMID: 20828199; conditions: pH 7.4
[15] = method code SF-AS, from DOI: 10.3390/molecules16097565, PMID: 21894089
[16] = method code SF-RC, from DOI: 10.1021/es60172a005, PMID: 22280000
[17] = method code SF-HPLC, from DOI: 10.1016/j.ejmech.2009.03.025, PMID: 19386398; conditions: pH 7.4
[18] = method code SF-AS, from PMID: 582102; conditions: pH 3.0
[19] = not given; remark: listed apart in the source
[20] = method code SF-HPLC, from DOI: 10.1016/j.bmc.2009.06.014, PMID: 19586774; conditions: pH 7.4
[21] = method code SF-RC, from DOI: 10.17863/cam.48378, PMID: 23133799; conditions: pH 7.4
[22] = not given; remark: listed apart in the source
[23] = method code SF-AS, from Sengupta, C.; Mondal, K. (1986). Partition coefficients of some anticoagulants and coagulants in relation to their biological activity. Indian J Pharm Sci, 48(2)51-52.
[24] = method code SF-RC, from DOI: 10.1021/jm701375u, PMID: 18307287; conditions: pH 7.4
[25] = not given; remark: listed apart in the source
[26] = not given; remark: listed apart in the source
[27] = not given; remark: listed apart in the source
[28] = not given; remark: listed apart in the source
[29] = not given; remark: listed apart in the source
[30] = method code SF-HPLC, from DOI: 10.1016/0378-5173(85)90221-2; conditions: pH 1.5
[31] = method code SF-HPLC, from DOI: 10.1016/0378-5173(94)90060-4; conditions: pH 5.0
[32] = method code SF-AS, from DOI: 10.1016/s0928-0987(01)00170-1, PMID: 11500262; conditions: pH 12.5
[33] = method code SF, from Zhang, Y. (2010). Determination and Correlation of 1-Octanol/Water Partition Coefficients for Six Quinolones from 293.15 K to 323.15 K. Chemical Research in Chinese Universities, 26(4)636-639.
[34] = not given; remark: listed apart in the source
[35] = method code SF-HPLC, from DOI: 10.1021/js950346l, PMID: 9109056
[36] = method code SF, from DOI: 10.1021/acs.jmedchem.6b00554, PMID: 27500461; conditions: pH 7.4
[37] = method code SF, from DOI: 10.1016/j.ejps.2014.02.002, PMID: 24530864; conditions: pH 7.4
[38] = method code SF-HPLC, from Gao, X.; Yu, Y.; Wang, Y.; Pi, J.; Zhang, W.; Xiao, X. (2013). Determination of equilibrium solubility and apparent partition coefficient of bakuchiol. West China Journal of Pharmaceutical Sciences, …
[39] = not given; remark: listed apart in the source
[40] = method code SF-HPLC, from DOI: 10.1016/j.bmc.2015.09.009, PMID: 26385444
[41] = method code SF-AS, from DOI: 10.1016/0048-3575(89)90091-6
[42] = not given; remark: listed apart in the source
[43] = not given; remark: listed apart in the source
[44] = method code SF, from DOI: 10.1016/s0223-5234(00)80025-2, PMID: 11278041; conditions: pH 7.4
[45] = method code SF, from DOI: 10.1016/s0969-8051(99)00063-3, PMID: 10628565; conditions: pH 7.4

Compound CC(=O)Oc1c(C)cc(OCC(O)CNC(C)C)c(C)c1C (stereo unspecified) has a logP of 1.95.
Work on Nc1ncnc2c1ncn2C(c1ccccc1)c1ccccc1 yielded a logD [1] of 3.19.
Work on CCOC(=O)[C@@]1(C)CSC(c2ccc(OCCOCCOC)cc2O)=N1 yielded a logD [2] of 3.
N#Cc1ccc(CN2CCC(COC/C=C/I)CC2)cc1 showed a logP [3] of 3.24.
Work on C#CCN1C(=O)CN=C(c2ccccc2)c2cc(Cl)ccc21 yielded a logD [4] of 2.87.
For CN(C)CC/C=C1/c2ccccc2Sc2ccc(Cl)cc21, the logP [5] was 5.18.
For O=C(NC12CC3CC(CC(C3)C1)C2)C(O)c1ccccc1 (stereo unspecified), the logP [6] was 3.09.
With O=C(Nc1ccn(C2CSC(CO)O2)c(=O)n1)c1cnc2ccccc2c1 (stereo unspecified) the logP [7] was 0.87.
In the case of O=C(NCC(O)CO)c1c(I)c(C(=O)NCC(O)CO)c(I)c(N(CCO)C(=O)CO)c1I (stereo unspecified), the logD [8] was -2.98.
CN(C)CCc1c[nH]c2ccc(CS(=O)(=O)N3CCCC3)cc12 gave a logP [9] of 1.6.
In the case of Cc1ccc(CCNc2cc(-c3n[nH]c(N)n3)ccn2)cc1C, the logP [10] was 3.08.
In the case of Clc1ccc(N2CCN(Cc3cnn4c(I)cccc34)CC2)cc1, the logD [11] was 2.36.
Compound CCN1CCc2cc(S(=O)(=O)Nc3ccc(F)cc3F)cc(NC(C)=O)c21 has a logP [12] of 1.4.
CCCCCCCCCCOc1ccc(C(=O)O)cc1 showed a logP [13] of 5.77.
For CCCCCCCc1c(C)[nH]c2cc(OC)c(Cl)cc2c1=O, the logD [14] was 3.83.
Work on C[C@H](c1nc2ccc(F)cc2s1)N1C(=O)C(=O)N(c2ccccc2)C1=O yielded a logP [15] of 1.51.
c1ccc2nc(-c3ccc4ccccc4n3)ccc2c1 showed a logP [16] of 4.31.
Work on Cc1ccc(N=NC(C)C(=O)NCCc2ccc(O)cc2)cc1 (stereo unspecified) yielded a logD [17] of 3.9.
With COc1ccc(N(CCCC(=O)O)C(=O)c2ccc(Cl)cc2)cc1 the logD [18] was 2.7.
In the case of COc1ccc(C2=CC(c3ccc(S(C)(=O)=O)cc3)C=NC2=O)cn1 (stereo unspecified), the logP [19] was 1.7.
CCc1cc(Cl)cc2[nH]c(=O)c(-c3cccc(NC)c3)c(O)c12 showed a logD [20] of 1.92.
Compound FCCOCCON=C1C=C(C#Cc2ccccn2)CCC1 has a logD [21] of 1.9.
Compound CCC(c1ccc(O)cc1)C(C(C)=O)c1ccc(O)cc1 (stereo unspecified) has a logP [22] of 3.1.
Compound CC(=O)CC(c1ccc([N+](=O)[O-])cc1)c1c(O)c2ccccc2oc1=O (stereo unspecified) has a logP [23] of 1.98.
With Brc1cccc(N2CCN(Cc3cnn4ccccc34)CC2)n1 the logD [24] was 1.98.
O=C1/C(=C/c2ccccc2F)CCCc2ccccc21 gave a logP [25] of 4.55.
C[C@]12CCC(=O)C[C@@H]1CC[C@@H]1[C@@H]2[C@@H](F)C[C@]2(C)[C@@H](O)CC[C@@H]12 gave a logP [26] of 3.5.
Work on O=S1(=O)OC(c2ccc(O)cc2)(c2ccc(O)cc2)c2ccccc21 yielded a logP [27] of 3.02.
CCCn1c(=O)c2[nH]c(-c3ccc(S(=O)(=O)O)cc3)nc2n(CCC)c1=O gave a logP [28] of -0.03.
With CC[C@H](Oc1ccccc1)C(=O)N[C@@H]1C(=O)N2[C@@H]1SC(C)(C)[C@@H]2C(=O)O the logP [29] was 2.58.
CCCc1c2c(c(O)c3c(=O)cc(C(=O)O)oc13)CCCC2 gave a logD [30] of 4.4.
In the case of COC(=O)Nc1nc2cc(C(=O)c3ccccc3)ccc2n1C(=O)OC, the logD [31] was 2.47.
Compound CN(C)CCCc1ccccc1-c1ccccc1 has a logD [32] of 5.53.
CC1COc2c(N3CCN(C)CC3)c(F)cc3c(=O)c(C(=O)O)cn1c23 (stereo unspecified) gave a logP [33] of -0.05.
In the case of CCCCCCCCCCCC(=O)N1CCCCCC1, the logP [34] was 7.3.
COc1ccc2c(c1)c(CC(=O)O)c(C)n2C(=O)c1ccc(Cl)cc1 showed a logP [35] of 3.86.
For Cc1sc(=NC(=O)C2C(C)(C)C2(C)C)n(CCCCF)c1C, the logD [36] was 3.22.
With Cc1ncc2n1-c1ccc(Cl)cc1C(c1ccccc1F)=NC2 the logD [37] was 3.
For C=C[C@@](C)(/C=C/c1ccc(O)cc1)CCC=C(C)C, the logP [38] was 4.27.
For CCC(C)(CC)c1cc(NC(=O)c2c(OC)cccc2OC)on1, the logP [39] was 3.
Work on CC1=C(C(=O)Nc2nc3ccccc3s2)C(c2ccccc2)NC(=S)N1 (stereo unspecified) yielded a logP [40] of 2.03.
With CC1(C)C(C=C2CCSC2=O)C1C(=O)OCc1ccccc1 (stereo unspecified) the logP [41] was 4.02.
CCN(CC)CCN1c2ccccc2Sc2ccccc21 showed a logP [42] of 5.94.
With c1ccc(Oc2ccccc2-c2ccccc2)cc1 the logP [43] was 5.66.
With CC(C)Cc1ccc(C(C)C(=O)OCN2C(=O)CCC2=O)cc1 (stereo unspecified) the logD [44] was 2.62.
In the case of CC(=O)OCC1C(OC(C)=O)C(OC(C)=O)C(OC(C)=O)CN1CCCI (stereo unspecified), the logD [45] was 1.76.
